Earlier results as cited in patent US11083740B2, “Cancer therapy” (NED Biosystems, Inc., priority 2013, dated 2021).

What was measured:
[1] = tested on: hormone refractory PC-3 prostate cancer cells; details: PC-3 cells
[2] = in vivo
HUVECs [3] = details: partially AMPK-dependent
[4] = tested on: cultured bovine granulosa cells; details: AMPK-dependent mechanism
HUVECs [5] = tested on: HUVECs
[6] = tested on: pancreatic carcinoma cells
[7] = in vivo; remark: listed apart in the source
[8] = in vivo; remark: listed apart in the source

With `O=c1c(-c2ccc(O)cc2)coc2cc(O)cc(O)c12` [Genistein] as the compound, how does the IGF-1-stimulated cell growth [1] read?
The IGF-1-stimulated cell growth was “significant inhibition”.

With `O=C(O)CCCCC1CCSS1` (stereo not drawn) [Alpha-Lipoic Acid, 1,2-dithiolane-3-pentanoic acid] as the compound, how does the “bioavailability when taken with a meal” value [2] read?
The value was “decreases”.

With `CN(C)C(=N)N=C(N)N` [Metformin] as the compound, how does the “proliferation, migration, and MMP-2 and -9 expression” value (HUVECs [3]) read?
Its value is “strongly inhibited”.

And the “response to IGF1” value [4]?
The value was “reducing cell growth, protein synthesis, MAPK3/1, and P90RSK phosphorylation”.

With “[Met(5)]-enkephalin [Opioid Growth Factor [Met(5)]-enkephalin]” as the compound, how does the “toxicity of metronomic dosing” value (50 μg/kg injected subcutaneously twice daily) read?
The value was “no toxicity”.

And the maximum tolerated dose (30-minute intravenous infusion once or twice weekly)?
Its maximum tolerated dose is 0.25 mg/kg.

With `COc1ccc2[nH]cc(CCNC(C)=O)c2c1` [Melatonin, N-acetyl-5-methoxytryptamine] as the compound, how does the “cell proliferation and migration” value (HUVECs [5]) read?
Its value is “inhibits”.

What about the “VEGF protein secreted and produced” value [6] of the same compound?
The value was “decreases”.

Which oral bioavailability [7] does the source give for `CC(C)[C@@H](CC[C@@H](C)[C@H]1CC[C@H]2[C@@H]3[C@H](O)C[C@H]4C[C@@H](NCCCNCCCCN)CC[C@]4(C)[C@H]3CC[C@]12C)OS(=O)(=O)O` [Squalamine] here?
Its oral bioavailability is “does not have high oral bioavailability”.

What about the “maximum tolerated dose (MTD)” value [8] of the same compound?
The value was 300 mg/m2/day.
